Assay results taken from US9676789B2, “Aminated derivative of homoharringtonine, preparation method therefor, and application thereof” (HANGZHOU BENSHENG PHARMACEUTICAL CO., LTD., priority 2011, dated 2017).
In brackets after ≈: the same amount, converted by molar mass.

Legend:
[1] = system: Jurkat (acute lymphoblastic leukemia, ALL); assay: MTT leukemia cell growth inhibition, 72 h; assay type: cell-based, human; settings: Homo sapiens; for IC50: read-out: IC50; for IC90: read-out: IC90
From the text: (§1) Leukemia cell lines: K562/adr (drug-resistant, chronic myeloid leukemia, CML), NB4 (acute promyelocytic leukemia, AML), Kasumi-1 (acute myeloid leukemia M2 type, AML-M2), Jurkat (acute lymphoblastic leukemia, ALL), all of which are donated by Cancer Research Institute of Zhejiang University, China; and H9 (acute lymphoblastic leukemia, ALL), which is purchased from China Center for Type Culture Collection.
(§2) Obtaining 6000 well-growing leukemia cells and inoculating them into wells of a 96-well cell culture plate. The culture medium is the 1640 cell culture medium containing 10% fetal bovine serum. After adding the homoharringtonine derivatives of different concentrations and mixing uniformly, placing the plate in a carbon dioxide cell incubator (5% CO2) at 37° C. and incubating for 72 hours. Then the viable cell concentration is determined by the MTT method. In this experiment, the cell viability in control group (not treated with any compound) is set as 100%.

[2] = system: H9 (acute lymphoblastic leukemia, ALL); assay: MTT leukemia cell growth inhibition, 72 h; assay type: cell-based, human; settings: Homo sapiens, H9, 72 h; for IC50: read-out: IC50; for IC90: read-out: IC90
From the text: as §1, §2

[3] = system: K562/adr (drug-resistant, chronic myeloid leukemia, CML); assay: MTT leukemia cell growth inhibition, 72 h; assay type: cell-based, human; settings: Homo sapiens, K562/Adr; for IC50: read-out: IC50; for IC90: read-out: IC90
From the text: as §1, §2

[4] = system: Kasumi-1 (acute myeloid leukemia M2 type, AML-M2); assay: MTT leukemia cell growth inhibition, 72 h; assay type: cell-based, human; settings: Homo sapiens, Kasumi-1, 72 h; for IC50: read-out: IC50; for IC90: read-out: IC90
From the text: as §1, §2

[5] = system: NB4 (acute promyelocytic leukemia, AML); assay: MTT leukemia cell growth inhibition, 72 h; assay type: cell-based, human; settings: Homo sapiens, NB4, 72 h; for IC50: read-out: IC50; for IC90: read-out: IC90
From the text: as §1, §2

[6] = system: PANC-1 (pancreatic cancer); assay: MTT solid tumor cell growth inhibition, 72 h; assay type: cell-based, human; settings: Homo sapiens, PANC-1, 72 h; for IC50: read-out: IC50; for IC90: read-out: IC90
Experimental: (§3) Human solid tumor cell lines: Hep-2 ([…]), A549 (human lung cancer), CaES-17 (esophageal cancer cell), PC-3 (prostate cancer), CNE (nasopharyngeal carcinoma cell), and SK-OV-3 (ovarian cancer cell), all of which are purchased from China Center For Type Culture Collection; RKO (human colon adenocarcinoma cell), MGC 803 (human gastric cancer cell), MG63 (osteosarcoma) and U87 MG (malignant glioma cell), all of which are purchased from Fuxiang Bio-tech Co. Ltd., Shanghai, China; PANC-1 (pancreatic cancer), Huh7 (human liver cancer cell), Becap37 (human breast cancer cell), and Hela (human cervical cancer cell), all of which are donated by Cancer Research Institute of Zhejiang University, China.
(§4) Obtaining 4000 well-growing human solid tumor cells and inoculating them into wells of a 96-well cell culture plate. The culture medium is DMEM High Glucose cell culture medium containing 10% fetal bovine serum. The plate is placed in a carbon dioxide cell incubator (5% CO2) at 37° C. and incubating for 24 hours. After adding the homoharringtonine derivatives of different concentration and mixing uniformly, the plate is placed in a carbon dioxide cell incubator (5% CO2) at 37° C. and incubating for 72 hours. Then the viable cell concentration is determined by the MTT method and the cell viability (%) after drug treatment is calculated. In this experiment, the cell viability of control group (not treated with any compound) is set as 100%.

MG63 (osteosarcoma) = assay: MTT solid tumor cell growth inhibition, 72 h; assay type: cell-based, human; settings: Homo sapiens, MG 63, 72 h; for IC50: read-out: IC50; for IC90: read-out: IC90
Experimental: as §3, §4

[7] = system: RPMI8226 (multiple myeloma); assay: MTT multiple myeloma cell growth inhibition, 72 h; assay type: cell-based, human; settings: Homo sapiens, RPMI-8226, RPMI8226, 72 h; for IC50: read-out: IC50; for IC90: read-out: IC90
Experimental: Multiple myeloma and lymphoma cell lines: RPMI8226 (multiple myeloma), purchased from Fuxiang Bio-tech Co. Ltd., Shanghai, China.
as §2, with “method.” for “method. In this experiment, the cell viability in control group (not treated with any compound) is set as 100%.”

[8] = system: Becap37 (human breast cancer cell); assay: MTT solid tumor cell growth inhibition, 72 h; assay type: cell-based; settings: Homo sapiens, Becap37, 72 h; for IC50: read-out: IC50; for IC90: read-out: IC90
Experimental: as §3, §4

A549 (human lung cancer) = assay: MTT solid tumor cell growth inhibition, 72 h; assay type: cell-based; settings: Homo sapiens, A549, 72 h; for IC50: read-out: IC50; for IC90: read-out: IC90
Experimental: as §3, §4

[9] = system: RKO (human colon adenocarcinoma cell); assay: MTT solid tumor cell growth inhibition, 72 h; assay type: cell-based; settings: Homo sapiens; for IC50: read-out: IC50; for IC90: read-out: IC90
Experimental: as §3, §4

[10] = system: Huh7 (human liver cancer cell); assay: MTT solid tumor cell growth inhibition, 72 h; assay type: cell-based; settings: Homo sapiens, Huh-7, Huh7, 72 h; for IC50: read-out: IC50; for IC90: read-out: IC90
Experimental: as §3, §4

[11] = system: MGC 803 (human gastric cancer cell); assay: MTT solid tumor cell growth inhibition, 72 h; assay type: cell-based; settings: Homo sapiens, MGC 803, 72 h; for IC50: read-out: IC50; for IC90: read-out: IC90
Experimental: as §3, §4

Row | SMILES | IC50 [1] | IC90 [1] | IC50 [2] | IC90 [2] | IC50 [3] | IC90 [3] | IC50 [4] | IC90 [4] | IC50 [5] | IC90 [5] | IC50 [6] | IC90 [6] | IC50 (MG63 (osteosarcoma)) | IC90 (MG63 (osteosarcoma)) | IC50 [7] | IC90 [7] | IC50 [8] | IC90 [8] | IC50 (A549 (human lung cancer)) | IC90 (A549 (human lung cancer)) | other results
1 | COC1=C[C@]23CCCN2CCc2cc4c(cc2[C@@H]3[C@@H]1OC(=O)[C@@](O)(CCCC(C)(C)O)CC(=O)Nc1nccs1)OCO4 [BS-HH-008] | 4.69 µg/mL (≈ 7.64 µM) | 16 µg/mL (≈ 26.1 µM) | 13.4 µg/mL (≈ 21.9 µM) | > 16 µg/mL | > 16 µg/mL | > 16 µg/mL | 5 µg/mL (≈ 8.15 µM) | > 16 µg/mL | 5.62 µg/mL (≈ 9.16 µM) | 12.8 µg/mL (≈ 20.9 µM) | > 16 µg/mL | > 16 µg/mL | 15.5 µg/mL (≈ 25.3 µM) | > 16 µg/mL | 11 µg/mL (≈ 17.9 µM) | > 16 µg/mL | > 16 µg/mL | > 16 µg/mL | 16 µg/mL (≈ 26.1 µM) | > 16 µg/mL | IC50 [9]: 4.44 µg/mL (≈ 7.23 µM); IC90 [9]: 16 µg/mL (≈ 26.1 µM); IC50 [10]: 11.2 µg/mL (≈ 18.3 µM); IC90 [10]: > 16 µg/mL
2 | COC1=C[C@]23CCCN2CCc2cc4c(cc2[C@@H]3[C@@H]1OC(=O)[C@@](O)(CCCC(C)(C)O)CC(=O)N1CC=CC1)OCO4 [BS-HH-018] | 0.88 µg/mL (≈ 1.51 µM) | 16 µg/mL (≈ 27.5 µM) | 2.69 µg/mL (≈ 4.62 µM) | > 16 µg/mL | 7.77 µg/mL (≈ 13.3 µM) | > 16 µg/mL | 0.47 µg/mL (≈ 0.807 µM) | 2.32 µg/mL (≈ 3.98 µM) | 0.38 µg/mL (≈ 0.652 µM) | 1 µg/mL (≈ 1.72 µM) | 2.89 µg/mL (≈ 4.96 µM) | > 16 µg/mL | 0.96 µg/mL (≈ 1.65 µM) | > 16 µg/mL | 0.6 µg/mL (≈ 1.03 µM) | 5.66 µg/mL (≈ 9.71 µM) | 1.7 µg/mL (≈ 2.92 µM) | > 16 µg/mL | 4.09 µg/mL (≈ 7.02 µM) | > 16 µg/mL | IC50 [9]: 0.34 µg/mL (≈ 0.583 µM); IC90 [9]: 1.5 µg/mL (≈ 2.57 µM); IC50 [11]: 0.94 µg/mL (≈ 1.61 µM); IC90 [11]: 4.96 µg/mL (≈ 8.51 µM); IC50 [10]: 2.5 µg/mL (≈ 4.29 µM); IC90 [10]: > 16 µg/mL
3 | COC1=C[C@]23CCCN2CCc2cc4c(cc2[C@@H]3[C@@H]1OC(=O)[C@@](O)(CCCC(C)(C)O)CC(=O)N1CCC(O)CC1)OCO4 [BS-HH-021] | 13.4 µg/mL (≈ 21.8 µM) | > 16 µg/mL | > 16 µg/mL | > 16 µg/mL | > 16 µg/mL | > 16 µg/mL | 14.6 µg/mL (≈ 23.7 µM) | > 16 µg/mL | 8 µg/mL (≈ 13 µM) | 16 µg/mL (≈ 26 µM) | > 16 µg/mL | > 16 µg/mL | > 16 µg/mL | > 16 µg/mL | 16 µg/mL (≈ 26 µM) | > 16 µg/mL | > 16 µg/mL | > 16 µg/mL | > 16 µg/mL | > 16 µg/mL | IC50 [9]: 8.51 µg/mL (≈ 13.8 µM); IC90 [9]: > 16 µg/mL; IC50 [11]: > 16 µg/mL; IC90 [11]: > 16 µg/mL; IC50 [10]: > 16 µg/mL; IC90 [10]: > 16 µg/mL
4 | COC1=C[C@]23CCCN2CCc2cc4c(cc2[C@@H]3[C@@H]1OC(=O)[C@@](O)(CCCC(C)(C)O)CC(=O)N1CCN(C)CC1)OCO4 [BS-HH-009] | 3 µg/mL (≈ 4.89 µM) | > 16 µg/mL | 8 µg/mL (≈ 13 µM) | > 16 µg/mL | > 16 µg/mL | > 16 µg/mL | 8.54 µg/mL (≈ 13.9 µM) | > 16 µg/mL | 2.97 µg/mL (≈ 4.84 µM) | 11.2 µg/mL (≈ 18.2 µM) | 16 µg/mL (≈ 26.1 µM) | > 16 µg/mL | 1.72 µg/mL (≈ 2.8 µM) | > 16 µg/mL | 3.6 µg/mL (≈ 5.87 µM) | 16 µg/mL (≈ 26.1 µM) | 3.09 µg/mL (≈ 5.03 µM) | > 16 µg/mL | 10.2 µg/mL (≈ 16.7 µM) | > 16 µg/mL | IC50 [9]: 1.46 µg/mL (≈ 2.38 µM); IC90 [9]: 5.72 µg/mL (≈ 9.32 µM); IC50 [10]: 6.7 µg/mL (≈ 10.9 µM); IC90 [10]: > 16 µg/mL
